# Test results reported in patent US20250000952A1, “POLYPEPTIDE BASED ON RECEPTOR-INTERACTING PROTEIN KINASE-3 METHYLATION MODIFICATION AND APPLICATION THEREOF IN CELL NECROPTOSIS-RELATED DISEASES” (Air Force Medical University of the People's Liberation Army, priority 2023, published 2025).
# “Also recorded” adds a separate entry of the source.
# What was measured:
# [1] = test system: mouse fibroblast L929; test: Necroptosis stimulation experiment, cell morphology after TNF-α + Z-VAD; format: cell-based; conditions: L929, TNF-α (20 ng/mL)+Z-VAD (20 μM), polypeptide 20 μM, compared with TAT-mRIP3
# Procedure: The necroptosis induced by TNF-α (20 ng/mL)+Z-VAD (20 μM) is in mouse fibroblast L929, and polypeptide (20 μM) is added to intervene. After 12 hours treatment, the morphological changes of the cell are analyzed: Dimethyl sulfoxide (DMSO) is used as control group); the scale is 20 μm.
# After 12 hours, the necroptosis of the cells is stimulated.
# [2] = test system: Prmt5^iIEC-KO mice; test: Survival (lifetime) analysis of tamoxifen-induced Prmt5 knockout mice; format: in vivo, mouse; conditions: tamoxifen 75 mg/kg, polypeptide 10 mg/kg intraperitoneally once a day until death, ** p<0.01
# Procedure: Tamoxifen-induced mouse intestinal epithelial cell-specific gene knockout mice (Prmt5^iIEC-KO) are used. Tamoxifen is given (75 mg/kg) to mice at age of 8 weeks to induce Prmt5 gene knockout and cell necroptosis (intraperitoneal injection, once a day, for 5 days). Using Prmt5^iIEC-KO, while tamoxifen is injected to induce Prmt5 gene knockout, mice are injected with different types and concentrations of peptides intraperitoneally, and the survival cycle of mice is analyzed, ** p<0.01. Mice are injected intraperitoneally with 10 mg/kg polypeptide once a day until the mice die.
# [3] = test system: mouse L929 cells; test: Membrane penetrating experiment (fluorescence microscopy of FITC-labeled polypeptide); format: cell-based; conditions: 20 μM polypeptide, 24 hours
# Procedure: Under the condition of necroptosis activation, it is observed whether the symmetrical dimethyl modified polypeptide fragment is capable of reducing the necroptosis and protecting cells from death. 20 μM polypeptide is added to mouse L929 cells for 24 hours, and the efficiency of polypeptide entering the target cells is analyzed by fluorescence microscope, with the scale of 275 μm, and the results are shown in FIG. 1A-FIG. 1B.
# [4] = test system: pRIP1, pRIP3 and pMLKL; test: Protein detection of necroptosis marker molecules after TNF-α + Z-VAD; format: cell-based, mouse; conditions: L929, TNF-α (20 ng/ml)+Z-VAD (20 μM), peptide 10 μM, 20 μM and 50 μM, 12 hours
# Procedure: Furthermore, the necroptosis reaction in cells is detected. Mouse fibroblast L929 is treated with the classic cell necroptosis inducer TNF-α (20 ng/ml)+Z-VAD (20 μM), and at the same time, the peptides TAT (20 μM), TAT-mRIP3-WT and TAT-mRIP3-SDMA (10, 20 and 50 μM) are added. Cell samples are collected for protein detection after 12 hours.
# [5] = test system: intestinal tissues of Prmt5^iIEC-KO mice; test: HE histological analysis of mouse intestine; format: in vivo; conditions: compared with TAT and unmodified (TAT-mRIP3) polypeptide group
substance,measurement,setting,value
TAT-mRIP3-SDMA: GRKKRRQRRRPQQAQFGRG (SDMA) GWQPFHK; cell-penetrating peptide TAT connected to mouse RIP3 peptide with symmetric di-methylated arginine 479,protection against necroptosis / cell death (cell morphology),[1],reducing cell death; also recorded: obvious protective effect
same,lifetime of mice,[2],significantly prolonged
same,efficiency of polypeptide entering the target cells (fluorescence intensity),[3],capable of entering mouse lung fibroblast L929
same,"expression levels of pRIP1, pRIP3 and pMLKL",[4],decreasing the expression levels; also recorded: lower than control group
same,intestinal tissue necrosis and intestinal cavity structure (HE staining),[5],significant protective effect
